# Laboratory results published in US7417072B2, “Blockade of Pin1 prevents cytokine production by activated immune cells” (Wisconsin Alumni Research Foundation, priority 2005, dated 2008).
# Residues, ends and D or L forms follow the SMILES beside them. *: point of attachment. Cbz = O=C(OCc1ccccc1)*
# Experiments:
# eosinophils (Eos) = test: Eosinophil survival, cell viability at day 4; type: cell-based, human; conditions: for Eos survival: HA-activated Eos
# Protocol: In FIG. 2C, cells were untreated (−/− lanes on left) or incubated for 4 h with HA atone, HA plus varying concentrations (160 or 320 nM) of TAT-conjugated green fluorescent protein (TAT-GFP) or TAT-conjugated Pin1 domains (TAT-wwPin1) and analyzed as in FIG. 2A. In FIG. 2D, control (−/−), HA (100 μg/ml), rhGM-CSF (100 pg/ml), HA or GM-CSF plus TAT-GFP (160 nM) or HA or GM-CSF plus TAT-wwPin1 (160 nM) treated Eos were cultured for 4 days prior to cell viability assay as disclosed in Example 2 below.
# To this end, peripheral blood was obtained by venipuncture from patients who had allergic rhinitis or asthma; patients were not symptomatic at the time blood was obtained. Peripheral blood eosinophils (Eos) were purified using a negative immunomagnetic procedure as described in Esnault and Malter (2001, J. Immunol. 166:4658-96). After isolation, Eos were maintained in vitro in RPMI 1640 medium (Gibco Life Technologies, Grand Island, N.Y.) with 10% fetal calf serum (Gibco Life Technologies, Grand Island, N.Y.) and 50 μg/ml gentamicin (Gibco Life Technologies, Grand Island, N.Y.) at 37° C. in 5% CO2, and were metabolically labeled and activated by treatment under these culture conditions with 100 μg/ml HA (˜5 hours total, see below).
# The mechanism of Eos death was evaluated by western blotting.
# GM-CSF mRNA = GM-CSF mRNA levels in eosinophils, RT-PCR/Southern blot; type: cell-based, human
# Protocol: In FIG. 2A, Eos were treated as in FIG. 1A for 4 h prior to lysis with TriReagent and RT-PCR/Southern blot analysis for GM-CSF mRNA. Gel electrophoresis of GM-CSF products and control β-actin RT-PCR products are shown. In FIG. 2B, cells were treated with HA for 4 h and then juglone (1 μM) was added at the indicated times before harvest and RT-PCR analysis, where GM-CSF or β-actin mRNA expression were analyzed as above. In FIG. 2B, “C,” refers to PCR reaction mixtures without added cDNA. In FIG. 2C, cells were untreated (−/− lanes on left) or incubated for 4 h with HA atone, HA plus varying concentrations (160 or 320 nM) of TAT-conjugated green fluorescent protein (TAT-GFP) or TAT-conjugated Pin1 domains (TAT-wwPin1) and analyzed as in FIG. 2A. […] In FIG. 2E, eosinophils were treated for 4 h with HA or HA plus juglone (1 μM, 1 h prior to harvest) prior to the addition of actinomycin D (5 μg/ml) and cells harvested at the indicated times for RT-PCR/Southern blot analysis. In these experiments, PCR was performed for 30 (HA-treated cells) or 33 (HA plus juglone-treated cells) cycles, respectively.
# In FIG. 3A, Eos were untreated (−/−), treated with HA or HA plus juglone (1 μM) for 4 h. […] In FIG. 3C, cells were untreated (−/−/−) treated for 4 h with HA alone, HA plus juglone (10 min before harvest) or HA plus 20 μM or 100 μM MG132 (4 h) plus juglone (10 min before harvest), Cell lysates were immunoblotted with the antibodies shown. […] In FIG. 3D, Eos were treated as described for FIG. 3C except that only 20 μM MG132 was used. Cells were lysed with TriReagent for total RNA isolation prior to RT-PCR/Southern blot analysis.
# To characterize the mechanisms connecting hyaluronic acid (HA) activation to GM-CSF expression and eosinophil survival, GM-CSF mRNA decay was measured.
# In order to assess this possibility, GM-CSF mRNA levels were measured by RT/PCR-Southern blot hybridization experiments.
# Pin1 and AUF1 = Pin1 and AUF1 protein levels in eosinophils, immunoprecipitation/immunoblot; type: cell-based, human; conditions: MG132 4 h, juglone 10 min before harvest
# Protocol: In FIG. 3A, Eos were untreated (−/−), treated with HA or HA plus juglone (1 μM) for 4 h. Cell lysates were immunoprecipitated with anti-Pin1 antibody followed by immunoblotting with anti-AUF1 or anti-Pin1 antibodies. Nonimmune IgG was used as a negative control while HeLa cell extracts were used as a positive control (“C”). In FIG. 3B, immunoblots of cytoplasmic protein from Eos treated for 4 h with HA or co-treated with juglone (1 μM) for the indicated times before harvest. In FIG. 3C, cells were untreated (−/−/−) treated for 4 h with HA alone, HA plus juglone (10 min before harvest) or HA plus 20 μM or 100 μM MG132 (4 h) plus juglone (10 min before harvest), Cell lysates were immunoblotted with the antibodies shown. Lane “C” is a HeLa cell lysate used as a positive control. In FIG. 3D, Eos were treated as described for FIG. 3C except that only 20 μM MG132 was used.
# The effects of HA and juglone treatment on the interactions between AUF1 and Pin1 were then examined.
# To address this possibility, Eos were exposed to the proteasome inhibitor MG132 (4 h) (Sigma) and juglone (10 min before harvest) and lysates immunoblotted.
# p45 and p40 AUF1 = test: Anti-phosphoserine immunoblot of eosinophil cytoplasmic extracts; type: cell-based, human; conditions: 50 μM added 30 min before harvest
# Protocol: Cells were untreated (−/−/−), treated with HA alone (4 h), HA (4 h) plus juglone (1 μM added 10 min before harvest) or HA plus Erk inhibitor PD98059 (PD) (50 μM added 30 min before harvest). Cytoplasmic extracts were immunoblotted with anti-phosphoserine, anti-AUF1 or anti-Pin1 antibody as shown.
# As the association of Pin1 and AUF1 was unaffected by HA (FIG. 2A) despite the loss of GM-CSF mRNA from the protein complex (FIGS. 4A & 4B) it was hypothesized that either AUF1 and/or Pin1 was modified by HA mediated signaling. Phorbol esters trigger the dephosphorylation of Ser^83 and Ser^87 of p40 AUF1 was concomitant with the stabilization of IL-1β and TNF-α mRNAs (Wilson et al. 2003, J. Biol. Chem. 278:33029-33038). Therefore, cytoplasmic extracts from control or HA-treated Eos were immunoblotted with anti-phosphoserine, anti-AUF1 or anti-Pin1 antibodies.
# purified T cells = test: Cytokine mRNA in purified T cells activated with anti-CD3/anti-CD28, qPCR; type: cell-based, human; conditions: anti-CD3/anti-CD28, juglone 1 μM added along with antibody, 4 hours
# Protocol: Purified T cells were prepared by negative selection of PBMC (T cells>98% pure based on flow cytometry) and activated with a combination of anti-CD3 and anti-CD28 antibodies. Juglone was added at 0.1 or 1 μM as shown along with the antibodies or at various times (as shown) at 1 μM after the antibodies.
# Purified T cells were prepared by negative selection of PBMC (T cells>98% pure based on flow cytometry) and activated with a combination of anti-CD3 and anti-CD28 antibodies. Juglone was added at 0.1 or 1 μM as shown along with the antibodies. After 4 hours total incubation time, cells were lysed and mRNA used for RT-qPCR for the cytokine mRNAs shown “−” refers to control cells activated but not exposed to juglone.
# As PBMC are heterogeneous, this cell population was fractionated into T cells by negative selection (as described in Sedgwick et al., 2003, Am J Respir Cell Mol Biol. 29:702-9). […] These were then activated with anti-CD3 and anti-CD28 antibodies (obtained from Santa Cruz Biotech), and the effects of Pin1 blockade on cytokine gene expression assessed by qPCR. […] Juglone (1 μM) added along with antibody reduced GM-CSF mRNA by between 80-95%.
# [1] = tested on: cytokine expression and immune cells of transplant recipients; test: Immunologic analysis of lung transplant recipients (blood, spleen, BAL, lung, mediastinal lymph nodes)
# Protocol: Splenocytes (2000) from control or juglone-treated transplant recipients were activated with ionomycin (1 μM) and PMA (20 ng/ml) for 3 days prior to addition of anti-IL-2 or IFN gamma antibodies and color development and counting.
# Spleens were processed 8 days after transplantation from untreated or juglone-treated rats for mRNA isolation and RT-qPCR for IL-2, IFN or TNF alpha. Juglone treated mRNA levels were set to 100% in these analyses.
# Data are shown as the average±SEM (n=4 rats) of 3 experiments 7 days after transplantation.
# The values in untreated controls were normalized to 100% and data shown represent % change in juglone treated samples. The data shown are an average±SEM (n=4 rats) of 4 experiments. * denotes p<0.05 from control samples. […] Values are normalized to control (100%).
# Cytokine elaboration was measured by control, activated or juglone treated activated splenocytes as follows. IFNγ secretion by splenocytes was evaluated by ELISPOT (R&D Systems, Minneapolis, Minn.) as described by the manufacturer. Triplicates of serial dilutions of cells were cultured with PMA (10 ng/ml) plus iononycin (1 μM) for 48 hours. The concentration of IFN-γ and IL-2 in the BAL fluid was determined using an ELISA kit (R&D Systems).
# Next, immunologic changes between control and juglone treated transplant recipients were analyzed. […] Splenocytes harvested from control versus untreated animals (8 days after transplant) were stimulated with optimal concentrations of PMA (20 ng/ml) and ionomycin (1 μM) and analyzed by Elispot for IL-2 and IFNγ expression.
# Levels of IFN-γ and IL-2 were as measured, as described above, in the animals one week after transplantation.
# Cytokine mRNAs from splenocytes in juglone treated animals were also examined.
# rat splenocytes [2] = test: IFN-γ and IL-2 secretion by activated splenocytes, ELISA; type: cell-based; conditions: I/P stimulated spleen cells
# rat splenocytes [3] = test: Splenocyte viability, propidium iodide flow cytometry; type: cell-based; conditions: 24 hours
# Protocol: In FIG. 14A, mRNAs for IFN-γ, IL-2, TNF-α, CXCL-10 and TGF-β were analyzed in rat splenocytes by reverse transcription, qPCR. The ionomycin/PMA stimulated sample was normalized to 100 and others expressed as a % of that value. […] Cells were stained with propidium iodide and analyzed by flow cytometry. The results shown are representative of 3 experiments. […] The data are averages±SEM of 3 independent experiments using splenocytes of untreated healthy animals.
# Therefore, Pin1 blockade suppressed proliferation as well as the elaboration of proinflammatory cytokines by activated rat splenocytes.
# [4] = tested on: peripheral blood mononuclear cells (PBMC); test: Cytokine mRNA accumulation in activated PBMC, northern blot / qPCR; type: cell-based, human; conditions: mitogen stimulated, 4 h, juglone 1 μM
# Protocol: PBMCs were isolated from healthy donors by Percoll® gradient centrifugation of heparinized whole blood. Cells were cultured in RPMI 1640 media supplemented with 10% fetal calf serum (FCS) at 1×10^6 cells/ml prior to the addition of PMA (20 ng/ml) and PHA (5 ug/ml) (P/P) or PMA, PHA and juglone (1 uM) (P/P/J); “R” designates the control lane without addition of additional substances. After 4 h, cells were lysed and 10 ug of recovered RNA northern blotted and hybridized with probes shown along the left side of the Figure. “A” and “B” refer to results with 2 different donors.
# After 4 h, RNA was isolated from the cells and used for quantitative PCR (qPCR) for the cytokine mRNAs shown. Data are presented as % inhibition in samples with juglone.
# Thus peripheral blood mononuclear cells (˜70% T cells, 20% B cells, 5-10% macrophages/monocytes, obtained by phlebotomy of normal donors) were incubated with optimal concentrations of mitogens (phorbol ester (20 ng/ml), and PHA (40 ug/ml), both from Sigma) and cytokine in RNA levels were measured by northern blot or real time RT/PCR (qPCR) and cytokine secretion by ELISA. […] IL-2, IL-8, TNFα, IFNγ and GM-CSF mRNAs were evaluated first, since these cytokines all share 3′ UTR AU-rich elements with GM-CSF.
structure (smiles),measurement,setting,value
C=CC[C@@H]1/C=C(\C)C[C@H](C)C[C@H](OC)[C@H]2O[C@@](O)(C(=O)C(=O)N3CCCC[C@H]3C(=O)O[C@H](/C(C)=C/[C@@H]3CC[C@@H](O)[C@H](OC)C3)[C@H](C)[C@@H](O)CC1=O)[C@H](C)C[C@@H]2OC [FK506],Effect on HA-enhanced Eos survival,"eosinophils (Eos); HA 100 μg/ml, TAT proteins 160 nM",no effect
CC(C)C[C@@H](C=O)NC(=O)[C@H](CC(C)C)NC(=O)[C@H](CC(C)C)NC(=O)OCc1ccccc1 [MG132] (Cbz-Leu-Leu-Leu-aldehyde),GM-CSF mRNA in Eos treated with MG132 alone,GM-CSF mRNA,no observable effect
same,"GM-CSF mRNA in Eos treated with HA, MG132 and juglone","GM-CSF mRNA; 20 μM MG132 4 h, juglone 10 min before harvest",antagonized juglone-induced decreases of GM-CSF mRNA
same,Juglone-induced Pin1 degradation,Pin1 and AUF1,only partially prevented Pin1 degradation
same,"Juglone-induced p45, p42 and p40 AUF1 degradation",Pin1 and AUF1,completely blocked
COc1cccc(-c2cc(=O)c3ccccc3o2)c1N [PD98059],HA-increased phosphorylation of p45 and p40 AUF1,p45 and p40 AUF1,partially antagonized
same,GM-CSF mRNA levels in HA-treated Eos,"GM-CSF mRNA; HA 4 h, CsA 1.6 μM or 16 μM, TAT proteins 160 or 320 nM",failed to accumulate
same,Time to effect on GM-CSF mRNA after addition of the inhibitor,GM-CSF mRNA; HA-activated Eos,10 to 30 min
O=C1C=CC(=O)c2c(O)cccc21 [juglone],Eos survival,eosinophils (Eos); 0.1 μM,5%
same,Eos survival,eosinophils (Eos); 1.0 μM,5%
same,Reduction of GM-CSF mRNA in purified T cells,purified T cells,80-95%
same,Reduction in number of splenocytes expressing IL-2 and IFNγ by Elispot,"[1]; 8 days after transplant, PMA 20 ng/ml and ionomycin 1 μM",60-70%
same,"Absolute counts and ratios of peripheral blood CD4+, CD8+ cells and γ/δ lymphocytes",[1]; after 1 week of juglone,largely unaffected
same,Fewer total BAL cells than untreated controls,[1]; juglone 1 mg/kg,50%
same,IL-2 and IFN-gamma mRNA in lungs compared with no treatment controls,[1]; juglone 1 mg/kg,about 35%
same,Concentration of maximal effect on cytokine secretion,rat splenocytes [2],1 µM
same,Apoptosis in I/P versus I/P/juglone treated splenocytes,rat splenocytes [3],equivalent levels of apoptosis
same,Suppression of cytokine mRNAs by qPCR,[4],65-90%
